Experiments:
Assay type in all cases: cell-based
Design in all cases: unit not given here
[1] = system: E. coli ATCC10536; test: MIC by CLSI agar/broth dilution, Test Example 1; conditions: Table 2
Procedure: (§1) The MIC (minimum inhibitory concentration) was determined by the CLSI (Clinical and Laboratory Standards Institute) methods. The agar dilution method for determining antimicrobial susceptibility was carried out using Mueller Hinton-II agar and the amount of inoculation was 10^4 CFU/spot. Broth dilution tests were performed using Mueller Hinton-II broth. All assays were run with the indicated control strains, available from the ATCC (American Type Culture Collection, Rockville, Md.).

[2] = system: A. baumannii 4010; test: MIC by CLSI agar/broth dilution, Test Example 1; conditions: Table 2; strain produces OXA-51
Procedure: as §1

[3] = system: K. pneumoniae ATCC10031; test: MIC by CLSI agar/broth dilution, Test Example 1; conditions: Table 2
Procedure: as §1

[4] = system: A. baumannii KABA 01-33; test: MIC by CLSI agar/broth dilution, Test Example 1; conditions: Table 2; strain produces OXA-2, VIM-2
Procedure: as §1

[5] = system: P. aeruginosa ATCC27853; test: MIC by CLSI agar/broth dilution, Test Example 1; conditions: Table 2
Procedure: as §1

[6] = system: A. baumannii FSAb-056; test: Antimicrobial Susceptibility Test (CLSI), Test Example 3; conditions: Table 6; strain produces OXA-23, 51
Procedure: (§2) Antimicrobial Susceptibility Test was performed by the CLSI (Clinical and Laboratory Standards Institute) methods. The agar dilution method for determining antimicrobial susceptibility was carried out using Mueller Hinton-II agar and the amount of inoculation was 10^4CFU/spot. Broth dilution tests were performed using the Mueller Hinton-II broth. All assays were run with the indicated control strains, available from the ATCC (American Type Culture Collection, Rockville, Md.).

[7] = system: P. aeruginosa FSPa-102; test: as above; conditions: Table 6; strain produces IMP-1
Procedure: as §2

[8] = system: P. aeruginosa FSPa-141; test: as above; conditions: Table 6; strain produces VIM-2
Procedure: as §2

[9] = system: A. baumannii FSAb-029; test: as above; conditions: Table 6; strain produces OXA-2, IMP-1
Procedure: as §2

[10] = system: A. baumannii FSAb-141; test: as above; conditions: Table 6; strain produces PER-1, OXA-23, 51, 66
Procedure: as §2

[11] = system: E. coli FSEco-054; test: as above; conditions: Table 6; strain produces ESBL
Procedure: as §2

[12] = system: A. baumannii FSAb-039; test: as above; conditions: Table 6; strain produces OXA-51
Procedure: as §2

[13] = system: K. pneumoniae BAA-1904; test: as above; conditions: Table 6; strain produces KPC-3
Procedure: as §2

Row | Compound | MIC (minimum inhibitory concentration), E. coil ATCC10536 [1] | MIC (minimum inhibitory concentration), A. baumannii 4010 [2] | MIC (minimum inhibitory concentration), K. pneumoniae ATCC10031 [3] | MIC (minimum inhibitory concentration), A. baumannii KABA 01-33 [4] | MIC (minimum inhibitory concentration), P. aeruginosa ATCC27853 [5] | antimicrobial susceptibility, Ab FSAb-056 [6] | antimicrobial susceptibility, Pa FSPa-102 [7] | antimicrobial susceptibility, Pa FSPa-141 [8] | antimicrobial susceptibility, Ab FSAb-029 [9] | antimicrobial susceptibility, Ab FSAb-141 [10] | antimicrobial susceptibility, Ec FSEco-054 [11] | antimicrobial susceptibility, Ab FSAb-039 [12] | antimicrobial susceptibility, Kp BAA-1904 [13]
1 | C[C@@H](O)[C@H]1C(=O)N2C(C(=O)O)=C(CN(C)CCNC(=O)c3ccc(O)c(O)c3)[C@H](C)[C@H]12 [Compound 8] | 1 | 8 | 0.5 | 4 | >32 |  |  |  |  |  |  |  | 
2 | COc1ccc(C(=O)NCCN(C)CC2=C(C(=O)O)N3C(=O)[C@H]([C@@H](C)O)[C@H]3[C@H]2C)c(Cl)c1OC [Compound 15] | 32 | >32 | 1 | >32 | >32 |  |  |  |  |  |  |  | 
3 | C[C@@H](O)[C@H]1C(=O)N2C(C(=O)O)=C(CN(C)CC(=O)NCCNC(=O)c3ccc(O)c(O)c3)[C@H](C)[C@H]12 [Compound 20] | 0.5 | 16 | 0.25 | 4 | 16 |  |  |  |  |  |  |  | 
4 | C[C@@H](O)[C@H]1C(=O)N2C(C(=O)O)=C(CN(C)CC(=O)NCCc3ccc(O)c(O)c3)[C@H](C)[C@H]12 [Compound 22] | 2 | >32 | 0.5 | 32 | >32 |  |  |  |  |  |  |  | 
5 | C[C@@H](O)[C@H]1C(=O)N2C(C(=O)O)=C(CN(C)CCNC(=O)CCc3ccc(O)c(O)c3Cl)[C@H](C)[C@H]12 [Compound 23] | 8 | >32 | 2 | 16 | >32 |  |  |  |  |  |  |  | 
6 | C[C@@H](O)[C@H]1C(=O)N2C(C(=O)O)=C(CN(C)CCNC(=O)c3cc(=O)c(O)cn3O)[C@H](C)[C@H]12 [Compound 25] | 0.5 | 16 | 0.25 | 8 | 32 |  |  |  |  |  |  |  | 
7 | C[C@@H](O)[C@H]1C(=O)N2C(C(=O)O)=C(CN(C)CC(=O)NCc3cc(=O)c(O)co3)[C@H](C)[C@H]12 [Compound 27] | 0.063 | 8 | 0.063 | 16 | 16 |  |  |  |  |  |  |  | 
8 | C[C@@H](O)[C@H]1C(=O)N2C(C(=O)O)=C(CN(C)CC(=O)N(CCCNC(=O)c3ccc(O)c(O)c3F)CCCNC(=O)c3ccc(O)c(O)c3F)[C@H](C)[C@H]12 [Compound 115] |  |  |  |  |  | 8 | 2 | 4 | 2 | 2 | 2 | 4 | >32
9 | C[C@@H](O)[C@H]1C(=O)N2C(C(=O)O)=C(CN(C)CC(=O)N(CCCNC(=O)c3ccc(O)c(O)c3F)CCCNC(=O)c3ccc(O)c(O)c3F)[C@H](C)[C@H]12 [Compound 117] |  |  |  |  |  | 4 | 2 | 8 | 2 | 2 | 1 | 4 | >32
10 | C[C@@H](O)[C@H]1C(=O)N2C(C(=O)[O-])=C(CN(C)CC[N+](C)(CCCNC(=O)c3ccc(O)c(O)c3F)CCCNC(=O)c3ccc(O)c(O)c3F)[C@H](C)[C@H]12 [Compound 118] |  |  |  |  |  | 8 | 4 | 8 | 2 | 4 | 2 | 8 | >32
11 | COc1ccc(C(=O)NCCCN(CCCNC(=O)c2ccc(O)c(O)c2F)CC2=C(C(=O)O)N3C(=O)[C@H]([C@@H](C)O)[C@H]3[C@H]2C)c(F)c1OC [Compound 119] |  |  |  |  |  | 8 | >32 | >32 | 4 | 8 | 16 | 8 | >32
12 | COc1ccc(C(=O)NCCCN(CCCNC(=O)c2ccc(OC)c(OC)c2F)CC2=C(C(=O)O)N3C(=O)[C@H]([C@@H](C)O)[C@H]3[C@H]2C)c(F)c1OC [Compound 120] |  |  |  |  |  | >32 | >32 | >32 | >32 | >32 | >32 | >32 | >32
